Test [1] deals with Malacoceros fuliginosus FaNaC1, wild type (Malacoceros fuliginosus).
Test [2] deals with A. kurodai FaNaC. The test can be described thus: Two-electrode voltage clamp of oocytes expressing A. kurodai FaNaC. In kind it is cell-based, Aplysia kurodai. The conditions noted are these: for peptide potency/activity compared to FMRFa (in words): Fig. 2 A. The source says: (§1) A. kurodai FaNaC (NCBI GenBank: AB206707.1) and M. fuliginosus FaNaC1 (NCBI GenBank: ON156825.1) cDNAs in tailored pSP64 plasmid vectors including Xenopus laevis UTRs and poly(A) sequences have been described at length previously ([9],[16]). A. kurodai FaNaC F188Y, F188tag (amber stop codon), F453Y, and F453tag mutants were generated by site-directed mutagenesis as detailed in ([17]) with custom primers (Merck) and PCR with Phusion High-Fidelity DNA polymerase (Thermo Fisher). All coding sequences were confirmed by Sanger sequencing (Genewiz). Plasmid DNA was linearized by digesting with EcoRI (Thermo Fisher) and purified with the DNA Clean & Concentrator Kit (Zymo). mRNA was then transcribed using the mMESSAGE mMACHINE SP6 Transcription Kit (Thermo Fisher) and purified with the RNeasy Mini Kit (Qiagen).
(§2) X. laevis frog oocytes were shipped from Ecocyte Bioscience, Germany, and stored at 18°C in 50% Leibovitz’s L-15 medium (Gibco) supplemented with additional 0.25 mg/mL gentamicin, 1 mM L-glutamine, and 15 mM HEPES, pH 7.6.
(§3) For wild-type (WT) and conventional mutant channels, oocytes were injected with 40 nL of 120 ng/μL FaNaC mRNA via glass micropipettes backfilled with mineral oil, using a Nanoliter2010 injector (World Precision Instruments). For the expression of noncanonical mutant channels, aminoacylated tRNA was first resuspended in 2 μL of water and deprotected by 5 min in UV light via a fan-cooled coil of 365-nm realUV LED strip lights (Waveform Lighting). Deprotected aminoacylated tRNA was then mixed 2:1 with 700 ng/μL UAG mutant FaNaC mRNA, and 40 nL of this mix was injected into oocytes.
(§4) Two-electrode voltage clamp experiments were performed 24–36 h after injection. The oocyte was placed in an RC-3Z bath (Warner Instruments) and perfused continuously with ND96 solution (NaCl 96 mM, KCl 2 mM, CaCl2 1.8 mM, MgCl2 1 mM, HEPES 5 mM, pH 7.5 with NaOH). In experiments without Ca^2+, CaCl2 was replaced with BaCl2, and oocytes were injected with 40 nL of water or 25 mM EGTA 10–45 min before recording. In experiments probing increased Ca^2+ concentrations, extracellular solutions contained NaCl 140 mM, HEPES 10 mM, CaCl2 1 mM, pH 7.5 with NaOH; or NMDG-Cl 126.5 mM, HEPES 10 mM, CaCl2 10 mM, pH 7.5 with NaOH (leaving a small amount of Na^+ in the final solution), based on previous work ([21]). ND96 (or the latter solutions) alone or containing peptides was rapidly exchanged via a VCS-8 pinch-valve control perfusion system (Warner Instruments). […] Oocytes were clamped at −80 mV for all experiments with an Oocyte Clamp OC-725D amplifier (Warner Instruments) and Axon Digidata 1550B digitizer ([…]). Data were recorded at 1000 Hz and filtered at 100–200 Hz. 50 Hz noise was eliminated with a Hum Bug (Digitimer). In measuring reversal potentials in normal and high Ca^2+ solutions, 150 ms voltage ramps from −80 mV to 80 mV were applied continuously, before and during FMRFa application. The resulting “current ramp” in the absence of FMRFa was subtracted from that during peak FMRFa-gated current to plot the FMRFa-induced current-voltage relationship.
(§5) Current amplitude was measured in Clampfit 11.1 (Molecular Devices), and subsequent data analyses were performed in Prism v9 (GraphPad Software). For peptide concentration-response data, peak current amplitude was normalized to maximum, plotted against peptide concentration, and fitted with four-parameter nonlinear regression (Prism v9) for each oocyte. These were averaged to give the reported means ± SE in the main text. For display in figures, a single fit to the average normalized responses (±SE) is shown. […] Therefore, in most M. fuliginosus/LMRFa experiments only, just two LMRFa applications were used: one test concentration and one 10 μM for normalization. This yielded n = 3 oocytes for responses to different concentrations, against which a single curve was fitted and half-maximal effective concentration (EC50) was calculated. […]

Test [3] concerns M. fuliginosus FaNaC1. As to the kind of experiment: Two-electrode voltage clamp of oocytes expressing M. fuliginosus FaNaC1. The note with it: for peptide potency/activity compared to FMRFa (in words): Fig. 2 A. In kind it is cell-based, Malacoceros fuliginosus.
Excerpt: as §1, §2, §3, §4, §5

Test [4] concerns clade 1 FaNaCs. The conditions noted are these: cited from earlier work; for sensitivity to native peptides (in words): extant clade 1 FaNaCs ref 9,27.
In test [5] the test system is A. kurodai FaNaC F188Phe. The test can be described thus: Two-electrode voltage clamp, nonsense suppression mutant F188Phe. In kind it is cell-based, Aplysia kurodai.
Excerpt: as §1
(§6) Noncanonical amino acids were incorporated into positions F188 and F453 of A. kurodai FaNaC via a nonsense suppression approach using an amber stop codon (TAG/UAG) and modified Tetrahymena thermophila Gln73 tRNA (THG73) ([19],[20]). […]
(§7) Two-electrode voltage clamp experiments were performed 24–36 h after injection. […] Data were recorded at 1000 Hz and filtered at 100–200 Hz. […]
(§8) Current amplitude was measured in Clampfit 11.1 (Molecular Devices), and subsequent data analyses were performed in Prism v9 (GraphPad Software). […]

Test [6] has as its system clade 2 FaNaCs. The conditions noted are these: extant clade 2 FaNaCs ref 9,23,27; cited from earlier work.
In test [7] the test system is A. kurodai FaNaC F188hPhe. As to the kind of experiment: Two-electrode voltage clamp, nonsense suppression mutant F188hPhe. Type of test: cell-based, Aplysia kurodai. The conditions noted are these: concentrations up to 100 μM.
Excerpt: as §1, §6, §7, §8

Test [8] concerns A. kurodai FaNaC F453hPhe. The test can be described thus: Two-electrode voltage clamp, nonsense suppression mutant F453hPhe. Type of test: cell-based, Aplysia kurodai.
Excerpt: as §1, §6, §7, §8

Test [9] deals with A. kurodai FaNaC F188Cha. The test can be described thus: Two-electrode voltage clamp, nonsense suppression mutant F188Cha. Type of test: cell-based, Aplysia kurodai. The note with it: concentrations up to 100 μM.
Excerpt: as §1, §6, §7, §8

In test [10] the test system is Helix aspersa FaNaC. Set-up: method as in PMID 9343851. The conditions noted are these: stated as shared by A. kurodai FaNaC and H. aspersa FaNaC ref 27; cited from earlier work.
Test [11] has as its system A. kurodai FaNaC F453Cha. The test can be described thus: Two-electrode voltage clamp, nonsense suppression mutant F453Cha. Type of test: cell-based, Aplysia kurodai.
Excerpt: as §1, §6, §7, §8

The subject of test [12] is M. fuliginosus FaNaC1 position α3-F129 UAG mutant. The test can be described thus: Two-electrode voltage clamp, nonsense suppression at F129 (UAG mutant mRNA and phenylalaninylated tRNA). In kind it is cell-based, Malacoceros fuliginosus. The conditions noted are these: UAG mutant mRNA and phenylalaninylated tRNA (not shown).
Test [13] relates to A. kurodai FaNaC F453Y. As to the kind of experiment: Two-electrode voltage clamp, conventional mutant F453Y. In kind it is cell-based, Aplysia kurodai.
Excerpt: as §1, with “(Qiagen). […]” for “(Qiagen).”
as §7
(§9) Current amplitude was measured in Clampfit 11.1 (Molecular Devices), and subsequent data analyses were performed in Prism v9 (GraphPad Software). […] This yielded n = 3 oocytes for responses to different concentrations, against which a single curve was fitted and half-maximal effective concentration (EC50) was calculated. […]

The test system of test [14] is M. fuliginosus FaNaC1 F129 A/L/Q mutants. Set-up: method as in PMID 38337033. The conditions noted are these: conventional F129 A/L/Q mutants ref 15; cited from earlier work.
Test [15] relates to A. kurodai FaNaC F188Y. The test can be described thus: Two-electrode voltage clamp, conventional mutant F188Y. Type of test: cell-based, Aplysia kurodai.
Excerpt: as §1, with “(Qiagen). […]” for “(Qiagen).”
as §7, §9

For test [16], the system named is A. kurodai FaNaC F453Phe. As to the kind of experiment: Two-electrode voltage clamp, nonsense suppression mutant F453Phe. Type of test: cell-based, Aplysia kurodai.
Excerpt: as §1, §6, §7, §8

Test [17] has as its target Aplysia kurodai FMRFa-gated sodium channel (FaNaC), wild type (Aplysia kurodai).
Test [18] has as its target Malacoceros fuliginosus FaNaC1, wild type (Malacoceros fuliginosus). The source holds these as a separate data set.
The mark [19] stands for this setting: X. laevis oocytes, -80 mV, mean ± SE.

Where “and” joins values, the source holds several entries; their conditions need not be identical. Equal entries are not always repeated. Entries after “also recorded” stand apart in the source; their conditions may differ. Where two headings read alike, the source gives them in different places. No end group written: not given here.

For the molecule (F3-Phe)MRFa (peptide), the EC50 of current activation, two-electrode voltage clamp, X. laevis oocytes in test [1] came out at 0.011 µM.

As to “AMRFa: synthetic FMRFa analog, F1 replaced with smaller hydrophobic side chain (A) (AMRF-NH2)”, the “peptide potency/activity compared to FMRFa (in words)” value in [2] (X. laevis oocytes) is on record as “activated no current”; in [3] (X. laevis oocytes), “similarly to FMRFa”.

Regarding “Ac-FMRFa: FMRFa with N-terminal acetylation”, the “peptide potency/activity compared to FMRFa (in words)” value was “little effect” in test [2] (X. laevis oocytes) and “increased potency” in test [3] (X. laevis oocytes).

Turning to “FKRFa: FMRFa analog, M2 replaced with lysine (FKRF-NH2)”, the “peptide potency/activity compared to FMRFa (in words)” value was “no activity” in [2] (X. laevis oocytes) and “no significant effect on potency” in [3] (X. laevis oocytes).

For the molecule “FMKFa: FMRFa analog, R3 replaced with lysine; also a native peptide (FMKF-NH2)”, in test [4], the “sensitivity to native peptides (in words)” value is given as “sensitive”. Besides, the “activation by peptide (in words)” value in test [4] (various mollusk FaNaCs ref 7,9) was “activated”.

On to “FMQFa: FMRFa analog, R3 replaced with glutamine (FMQF-NH2)”, for which, in [2] (100 μM), the “currents at 100 μM peptide” value is reported as “no currents”. Besides, the “peptide potency/activity compared to FMRFa (in words)” value in test [2] (X. laevis oocytes) is recorded as “total reduction in potency”.

For “FMRAa: FMRFa analog, F4 replaced with alanine (FMRA-NH2)”, the “peptide potency/activity compared to FMRFa (in words)” value in [3] (X. laevis oocytes) is recorded as “abolished peptide potency completely”.

Turning to “FMRF-OMe: FMRF with C-terminal O-methylester”, the “peptide potency/activity compared to FMRFa (in words)” value in test [3] (X. laevis oocytes) is “drastically reduced activation”.

For the molecule “FMRVa: FMRFa analog, F4 replaced with valine (FMRV-NH2)”, in test [3] (X. laevis oocytes), the “peptide potency/activity compared to FMRFa (in words)” value is listed as “did not significantly affect peptide potency”.

With “FVRFa: FMRFa analog, M2 replaced with valine (FVRF-NH2)”, the “peptide potency/activity compared to FMRFa (in words)” value in test [2] (X. laevis oocytes) is listed as “significantly less potent than FMRFa”; in [3] (X. laevis oocytes), “no significant effect on potency”.

Regarding H-Phe-Met-Arg-Phe-NH2 [FMRFa], in [5], the “FMRFa activation/potency (in words)” value is reported as “decreased FMRFa potency; also recorded: activated by FMRFa at micromolar concentrations”. Besides, the 50% effective concentration (EC50) in [2] (setting [19]) was 5.48 µM and 5.5 µM; in [3] (setting [19]), 0.35 ± 0.06 µM; in test [10], 3 to 5 µM. Also, the “binding of native peptides (in words)” value in test [6] is “bind”. Besides, the “response to FMRFa (in words)” value in [7] and in test [9] was “little or no response” throughout. Moreover, the entries for the “FMRFa sensitivity (in words)” value in test [8], in test [11] and in test [13] were “relatively little effect on FMRFa sensitivity”, “relatively little effect on FMRFa sensitivity” and “abolished FMRFa sensitivity”, respectively. Also, the “sensitivity to native peptides (in words)” value in [4] was “sensitive”. Further, the “FMRFa-gated currents (in words)” value in test [12] was “no FMRFa-gated currents”. Also, the “sensitivity to FMRFa (in words)” value in test [14] is “reduced sensitivity to FMRFa”. The “FMRFa activation (in words)” value in [15] was “activated by FMRFa at micromolar concentrations”. Besides, the “FMRFa potency compared to regular WT (in words)” value in test [16] is reported as “decreased FMRFa potency”.

Take “LMRFa: synthetic FMRFa analog, F1 replaced with smaller hydrophobic side chain (L) (LMRF-NH2)”: the “peptide potency/activity compared to FMRFa (in words)” value in test [2] (X. laevis oocytes) was “activated no current”; in test [3] (X. laevis oocytes), “similarly to FMRFa”. Moreover, in test [3], the “deactivation after peptide application” value is “especially slow”.

As to “SGFMRFa: FMRFa with N-terminal serine-glycine insertion (SGFMRF-NH2)”, the “peptide potency/activity compared to FMRFa (in words)” value in test [2] (X. laevis oocytes) is listed as “abolished activity”; in test [3] (X. laevis oocytes), “no effect”.

As to H-FMRF-NH2 [H-Phe-Met-Arg-Phe-NH2 (FMRFamide)], the EC50 of current activation, two-electrode voltage clamp, X. laevis oocytes in test [17] is 5.48 µM; in test [18] it was 0.35 µM.

The values above are taken from PMC11993918, “Flipped binding modes for the same agonist in closely related neuropeptide-gated ion channels” (Biophysical Journal, 2025).
